The values that follow come from ChEMBL document CHEMBL1201862, “PubChem BioAssay data set” (2004).

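48-hour exposure; five concentrations; linearly interpolated endpoints. GI50: concentration for 50% inhibition of growth.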 Activity calls are given as the source filed them. No stated cut-off is given here; in the data, active = GI50 up to about 1.1 µM and inactive = higher.

Among the test systems are 786-0; ACHN; CAKI-1; COLO 205; DU-145; EKVX; KM12; LOX IMVI; Malme-3M; NCI-H226; NCI-H23; OVCAR-5; RPMI-8226; SF-539; SK-MEL-2; UACC-257; Hs-578T; SNB-75.
Holding throughout (experiment): NCI anticancer screen, dose series, 48 h

Consider `CC1(C)C[C@H]2[C@H](O)C(CO)=C3C(=O)[C@@H](O)[C@]3(C)[C@H]2C1`, for which the GI50 with 786-0, in the test with ACHN, with CAKI-1, in the test on COLO 205, in the test with DU-145 and with EKVX was > 100 µM (inactive) throughout. Further, the GI50 in the test on KM12 was > 100 µM (inactive); in the test on LOX IMVI, 44.4 µM (inactive); with Malme-3M, > 100 µM (inactive); with NCI-H226, > 100 µM (inactive); with NCI-H23, 63.7 µM (inactive); in the test with OVCAR-5 it was > 100 µM (inactive). For the same compound, the GI50 in the test with RPMI-8226 was 38.4 µM (inactive); in the test with SF-539, 48.6 µM (inactive); in the test with SK-MEL-2, > 100 µM (inactive); in the test with UACC-257 it was > 100 µM (inactive).

As for `CCCCOc1ccc(S(=O)(=O)N/C(=N\O)Nc2ccc(Cl)cc2)cc1`, the GI50 was 15.8 µM (inactive) with 786-0; 14.9 µM (inactive) in the test on ACHN; 10.8 µM (inactive) in the test on CAKI-1; 18.3 µM (inactive) with COLO 205; 15.9 µM (inactive) with DU-145; 15.8 µM (inactive) in the test with EKVX. Further, the GI50 with Hs-578T is 23.2 µM (inactive); in the test with KM12, 16.6 µM (inactive); with LOX IMVI, 16 µM (inactive); with Malme-3M it was 17.7 µM (inactive); with NCI-H226, 24 µM (inactive); in the test with NCI-H23, 14.7 µM (inactive). In addition, the GI50 in the test on OVCAR-5 is 18.6 µM (inactive); with RPMI-8226, 21.1 µM (inactive); in the test with SF-539, 20.8 µM (inactive); with SK-MEL-2, 16.3 µM (inactive); with UACC-257, 15.5 µM (inactive).

`COc1cc(O)cc(O)c1C(=O)CC(Cl)(Cl)Cl`: the GI50 in the test with 786-0, in the test on ACHN, in the test with CAKI-1, with COLO 205, in the test on DU-145 and with EKVX was > 100 µM (inactive) in each case. The GI50 in the test with Hs-578T, in the test on KM12, in the test on LOX IMVI, with Malme-3M, in the test with NCI-H226 and in the test on NCI-H23 was > 100 µM (inactive) throughout. The GI50 was > 100 µM (inactive) with OVCAR-5, 40.1 µM (inactive) with RPMI-8226, > 100 µM (inactive) with SF-539 and > 100 µM (inactive) in the test with UACC-257.

In the case of `O=c1c(S(=O)(=O)Oc2ccccc2)coc2cc(F)ccc12`, the GI50 in the test with 786-0 was > 100 µM (inactive); in the test on ACHN it was > 100 µM (inactive); in the test on CAKI-1 it was > 100 µM (inactive); in the test on EKVX, > 100 µM (inactive); in the test on Hs-578T, 26.2 µM (inactive); in the test on KM12 it was > 100 µM (inactive). For the same compound, the GI50 in the test on LOX IMVI is > 100 µM (inactive); in the test on Malme-3M, > 100 µM (inactive); in the test on NCI-H226, 17.4 µM (inactive); in the test on NCI-H23, 82.2 µM (inactive); with OVCAR-5, > 100 µM (inactive); in the test on SF-539 it was > 100 µM (inactive). Further, the GI50 is 46.8 µM (inactive) in the test on SK-MEL-2, 30.9 µM (inactive) with SNB-75 and > 100 µM (inactive) in the test on UACC-257.

On to `C=C1CC[C@@H]2C13[C@@H]1[C@H](CC(=O)[C@@]23C)C1(C)C` (some centres not stated), for which the GI50 in the test on 786-0 is 55.1 µM (inactive); in the test with ACHN, > 100 µM (inactive); in the test on CAKI-1, > 100 µM (inactive); in the test on COLO 205, 84.5 µM (inactive); in the test with DU-145 it was > 100 µM (inactive); with Hs-578T it was > 100 µM (inactive). Also, the GI50 with KM12, in the test on LOX IMVI, in the test with Malme-3M, in the test with NCI-H226, in the test on NCI-H23 and in the test with OVCAR-5 was > 100 µM (inactive) throughout. The GI50 was > 100 µM (inactive) with RPMI-8226, 67.1 µM (inactive) with SF-539, > 100 µM (inactive) in the test on SK-MEL-2 and > 100 µM (inactive) in the test on UACC-257.

For `CC(C)=Cc1cc(C)c2c(O)cc(C)c3c2c1C(C)=C(O)C3=O`, the GI50 with 786-0 was 25.8 µM (inactive); in the test on ACHN, 25.5 µM (inactive); in the test with CAKI-1 it was 27 µM (inactive); in the test on COLO 205, 13 µM (inactive); in the test with DU-145 it was 28.7 µM (inactive); with Hs-578T, 27 µM (inactive). Besides, the GI50 in the test on KM12 was 20.5 µM (inactive); in the test with LOX IMVI, 20.1 µM (inactive); in the test on NCI-H226, 21.5 µM (inactive); in the test with NCI-H23 it was 23.4 µM (inactive); in the test on OVCAR-5, 28.7 µM (inactive); with RPMI-8226, 0.0257 µM (active). Moreover, the GI50 in the test on SF-539 is 28.1 µM (inactive); in the test on SK-MEL-2 it was 22.9 µM (inactive); in the test with UACC-257 it was 36.6 µM (inactive).

As for `Cc1c2c(Cl)c3c(c(Cl)c2c(C)c2c(Cl)c4c(c(Cl)c12)C(c1ccccc1)(c1ccccc1)C4(c1ccccc1)c1ccccc1)C(c1ccccc1)(c1ccccc1)C3(c1ccccc1)c1ccccc1`, the GI50 in the test with 786-0, with ACHN, in the test with CAKI-1, in the test with COLO 205, with DU-145 and in the test with EKVX was > 100 µM (inactive) each time. Further, the GI50 in the test with KM12, with LOX IMVI, in the test on Malme-3M, in the test on NCI-H226, in the test with NCI-H23 and with OVCAR-5 was > 100 µM (inactive) each time. Also, the GI50 with SF-539, in the test on SK-MEL-2, in the test on SNB-75 and with UACC-257 was > 100 µM (inactive) each time.

As to `N#Cc1c(-c2ccc([N+](=O)[O-])cc2)c(C#N)c(=O)n(NS(=O)(=O)c2ccccc2)c1-c1ccccc1`, the GI50 in the test on 786-0, in the test on ACHN, in the test with CAKI-1, in the test with COLO 205, with EKVX and in the test on Hs-578T was > 100 µM (inactive) each time. The GI50 in the test with KM12, in the test on LOX IMVI, in the test on Malme-3M, with NCI-H226, with OVCAR-5 and in the test with RPMI-8226 was > 100 µM (inactive) each time. Besides, the GI50 in the test on SF-539, in the test with SK-MEL-2, with SNB-75 and in the test with UACC-257 was > 100 µM (inactive) throughout.

For `COc1ccccc1Nc1nc2c([nH]1)c(=O)n(C)c(=O)n2C`, the GI50 in the test on 786-0, in the test on CAKI-1, in the test with COLO 205, in the test with DU-145, in the test on EKVX and with KM12 was > 10 µM (inactive) each time. Besides, the GI50 with LOX IMVI, with Malme-3M, in the test on NCI-H23, in the test with RPMI-8226, in the test on SNB-75 and in the test on UACC-257 was > 10 µM (inactive) each time.

As to `CN(C)CCNc1nc2c(c(=O)n(C)c(=O)n2C)n1C`, the GI50 in the test on 786-0, in the test on ACHN, in the test with CAKI-1, in the test on COLO 205, with DU-145 and in the test with EKVX was > 100 µM (inactive) each time. Further, the GI50 in the test with Hs-578T, in the test with KM12, with LOX IMVI, in the test on Malme-3M, in the test on NCI-H226 and in the test on NCI-H23 was > 100 µM (inactive) each time. In addition, the GI50 with OVCAR-5, in the test on RPMI-8226, in the test with SF-539 and in the test with UACC-257 was > 100 µM (inactive) throughout.

With `OC(CCl)CN1CC[N+]2(CC1)CC[N+]1(CCN(CC(O)CCl)CC1)CC2` (configuration not stated) [PROSPIDIUM CHLORIDE], the GI50 in the test with 786-0, with ACHN, with CAKI-1, in the test on COLO 205, in the test on EKVX and in the test with KM12 was > 50 µM (inactive) in each case. Moreover, the GI50 with Malme-3M, with NCI-H226, in the test with NCI-H23, in the test on RPMI-8226, in the test with SF-539 and in the test on SK-MEL-2 was > 50 µM (inactive) in each case. Also, in the test on SNB-75, the GI50 was > 50 µM (inactive).

As to `CN1CCN(C(=S)N(C)C(=O)c2ccco2)CC1`, the GI50 in the test on 786-0, in the test on ACHN, with COLO 205, in the test with DU-145, with Hs-578T and with KM12 was > 100 µM (inactive) each time. Also, the GI50 with LOX IMVI, in the test on Malme-3M, in the test with NCI-H226, in the test on NCI-H23, with OVCAR-5 and in the test on RPMI-8226 was > 100 µM (inactive) in each case. The GI50 in the test with SK-MEL-2 and in the test on UACC-257 was > 100 µM (inactive) throughout.

For the compound `CCOC(=O)c1nc2ccc(C(F)(F)F)cc2[nH]c1=O`, the GI50 in the test on 786-0 was > 100 µM (inactive); with ACHN, > 100 µM (inactive); with CAKI-1, > 100 µM (inactive); in the test with COLO 205 it was > 100 µM (inactive); with DU-145 it was > 100 µM (inactive); in the test with Hs-578T, 82 µM (inactive). Also, the GI50 in the test on KM12, in the test with LOX IMVI, in the test with NCI-H226, in the test with NCI-H23, in the test on OVCAR-5 and in the test with RPMI-8226 was > 100 µM (inactive) throughout. Further, the GI50 in the test with SF-539, with SK-MEL-2 and with UACC-257 was > 100 µM (inactive) in each case.
